This is an account of results in patent US20040242660A1, “Substituted oxazolidinones for combinational therapy” (priority 2001, published 2004).

For the first test, the target named is human factor Xa (FXa) (Homo sapiens, UniProt P00742). The test can be described thus: Measurement of factor Xa inhibition (chromogenic substrate). The test is classed as biochemical.
Chain of human factor Xa (FXa) (P00742 235-488 limits assumed): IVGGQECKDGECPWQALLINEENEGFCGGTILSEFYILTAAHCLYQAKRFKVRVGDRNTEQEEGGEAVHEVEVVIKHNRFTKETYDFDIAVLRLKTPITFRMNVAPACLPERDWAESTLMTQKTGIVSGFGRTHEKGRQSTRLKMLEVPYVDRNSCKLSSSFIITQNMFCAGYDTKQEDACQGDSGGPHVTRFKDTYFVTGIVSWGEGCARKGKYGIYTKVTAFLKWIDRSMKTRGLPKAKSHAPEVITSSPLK
Chain of human factor Xa (FXa) (P00742 41-179 partner limits assumed): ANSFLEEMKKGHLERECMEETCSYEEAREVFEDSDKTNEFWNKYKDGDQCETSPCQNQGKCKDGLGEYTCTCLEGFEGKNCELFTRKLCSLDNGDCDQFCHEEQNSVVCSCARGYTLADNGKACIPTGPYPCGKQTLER
Details: not given
As to the method:
a.1) Measurement of Factor Xa Inhibition
In this case, factor Xa eliminates p-nitroaniline from the chromogenic substrate.
The test substances were dissolved in various concentrations in DMSO and incubated with human FXa (0.5 nmol/l dissolved in 50 mmol/l tris buffer [C,C,C-tris(hydroxymethyl)-aminomethane], 150 mmol/l NaCl, 0.1% BSA (bovine serum albumine), pH=8,3) at 25° C. for 10 minutes. Pure DMSO serves as control.
In turn, `CC1(N)CCN(c2ccc(N3CC(CNC(=O)c4ccc(Cl)s4)OC3=O)cc2F)CC1` (stereo not shown) [Example 136] showed an IC50 of 1200 nM.

`O=C(NCC1CN(c2ccc(C3CCCCC3)cc2)C(=O)O1)c1ccc(Cl)s1` (stereo not shown) [Example 131] yielded an IC50 of 850 nM. This IC50 and that of the molecule before are within 1.5-fold of each other.

In turn, `NC1CCCN(c2ccc(N3CC(CNC(=O)c4ccc(Cl)s4)OC3=O)cc2F)C1` (stereo not shown) [Example 137] yielded an IC50 of 44 nM. Compared with the last molecule, the IC50 is about 19-fold lower.

Turning to `NC1CCN(c2ccc(N3CC(CNC(=O)c4ccc(Cl)s4)OC3=O)cc2F)C1` (stereo not shown) [Example 126], inhibition was half-maximal at 13 nM (IC50).

Take `O=C(NC[C@H]1CN(c2ccc(N3CCOCC3=O)c(F)c2)C(=O)O1)c1ccc(Br)s1` [Example 127]: half-maximal inhibition (IC50) was put at 0.7 nM.

For `O=C(NCC1CN(c2ccc(NCCCO)cc2)C(=O)O1)c1ccc(Cl)s1` (stereo not shown) [Example 138], the IC50 came to 420 nM.

Turning to `CC(C)(C)OC(=O)NC1CCCN(c2ccc(N3CC(CNC(=O)c4ccc(Cl)s4)OC3=O)cc2F)C1` (stereo not shown) [Example 135], the midpoint of inhibition, the IC50, lay at 1100 nM.

Take `O=C(NCC1CN(c2ccc(N3CCC3)c(F)c2)C(=O)O1)c1ccc(Cl)s1` (stereo not shown) [Example 132]: the IC50 is 120 nM.

In turn, `O=C(NCC1CN(c2ccc(N3CCCC(O)C3)c(F)c2)C(=O)O1)c1ccc(Cl)s1` (stereo not shown) [Example 134] registered an IC50 of 480 nM.

Turning to `O=C(NC[C@H]1CN(c2ccc(N3CCCC3=O)c(F)c2)C(=O)O1)c1ccc(Cl)s1` [Example 130], the concentration for half-maximal inhibition (IC50) amounted to 3.3 nM.

Still in this test, the particulars now being: factor Xa inhibition.
Molecule `O=C(Nc1ccc(N2CC(CNC(=O)c3ccc(Cl)s3)OC2=O)cc1)c1cccs1` (stereo not shown) [Example 156, 5-Chloro-N-[(2-oxo-3-{4-[(2-thienylcarbonyl)amino]phenyl}-1,3-oxazolidin-5-yl)methyl]-2-thiophenecarboxamide] registered an IC50 of 1300 nM.

In turn, `O=C(NC[C@H]1CN(c2ccc(N3CC[S+]([O-])CC3)c(F)c2)C(=O)O1)c1ccc(Cl)s1` [Example 14, 5-Chloro-N-({(5S)-3-[3-fluoro-4-(1-oxo-1[lambda]^4,4-thiazinan-4-yl)phenyl]-2-oxo-1,3-oxazolidin-5-yl}methyl)-2-thiophenecarboxamide] had a 50% inhibitory concentration (IC50) of 1100 nM.

Regarding `O=C(NC[C@H]1CN(c2ccc(N3CCOCC3)c(Cl)c2)C(=O)O1)c1ccc(Cl)s1` [Example 37, 5-Chloro-N-{[(5S)-3-(3-chloro-4-morpholinophenyl)-2-oxo-1,3-oxazolidin-5-yl]methyl}-2-thiophenecarboxamide], the IC50 came out at 33 nM. Against the preceding molecule, the IC50 is about 33-fold lower.

Regarding `CC(=O)NCc1ccc(N2CC(CNC(=O)c3ccc(Cl)s3)OC2=O)cc1` (stereo not shown) [Example 153, N-[(3-{4-[(Acetylamino)methyl]phenyl}-2-oxo-1,3-oxazolidin-5-yl)methyl]-5-chloro-2-thiophenecarboxamide], half-maximal inhibition (IC50) was put at 600 nM.

For `O=C(NC[C@H]1CN(c2ccc(N3CCCC3)cc2)C(=O)O1)c1ccc(Cl)s1` [Example 18, 5-Chloro-N-({(5S)-2-oxo-3-[4-(1-pyrrolidinyl)phenyl]-1,3-oxazolidin-5-yl}methyl)-2-thiophenecarboxamide], the IC50 turned out to be 40 nM. This IC50 is about 15-fold lower than that of the molecule before.

In turn, `NCc1ccc(N2CC(CNC(=O)c3ccc(Cl)s3)OC2=O)cc1` (stereo not shown) [Example 148, N-({3-[4-(Aminomethyl)phenyl]-2-oxo-1,3-oxazolidin-5-yl}methyl)-5-chloro-2-thiophenecarboxamide] registered a half-maximal inhibitory concentration (IC50) of 2200 nM.

`O=C(NC[C@H]1CN(c2ccc(N3CCS(=O)(=O)CC3)c(F)c2)C(=O)O1)c1ccc(Cl)s1` [Example 15, 5-chloro-N-({(5S)-3-[4-(1,1-dioxo-1[lambda]^6,4-thiazinan-4-yl)-3-fluorophenyl]-2-oxo-1,3-oxazolidin-5-yl}methyl)-2-thiophenecarboxamide] showed an IC50 of 210 nM. Compared with the last molecule, the IC50 is about 10-fold lower.

`Cc1noc(C)c1C(=O)Nc1ccc(N2CC(CNC(=O)c3ccc(Cl)s3)OC2=O)cc1` (stereo not shown) [Example 158, N-{4-[5-({[(5-Chloro-2-thienyl)carbonyl]amino}methyl)-2-oxo-1,3-oxazolidin-3-yl]phenyl}-3,5-dimethyl-4-isoxazolecarboxamide]: the concentration for half-maximal inhibition (IC50) came to 460 nM.

For the molecule `O=C(NC[C@H]1CN(c2ccc(S(=O)(=O)N3CCC3)cc2)C(=O)O1)c1ccc(Cl)s1` [Example 39, 5-Chloro-N-({(5S)-3-[4-(1-azetidinylsulfonyl)phenyl]-2-oxo-1,3-oxazolidin-5-yl}methyl)-2-thiophenecarboxamide], it took 840 nM to reach half-maximal inhibition (IC50).

Consider `COCC(=O)Nc1ccc(N2CC(CNC(=O)c3ccc(Cl)s3)OC2=O)cc1` (stereo not shown) [Example 157, 5-Chloro-N-[(3-{4-[(methoxyacetyl)amino]phenyl}-2-oxo-1,3-oxazolidin-5-yl)-methyl]-2-thiophenecarboxamide], for which the IC50 is 730 nM. This IC50 and that of the molecule before are within 1.5-fold of each other.

As for `O=C(NCC1CN(c2ccc(N3CCCC3=O)cc2)C(=O)O1)c1ccc(Br)s1` (stereo not shown) [Example 43, 5-Bromo-N-({2-oxo-3-[4-(2-oxo-1-pyrrolidinyl)phenyl]-1,3-oxazolidin-5-yl}methyl)-2-thiophenecarboxamide], the concentration for half-maximal inhibition (IC50) amounted to 14 nM.

Regarding `CC(C)(C)OC(=O)N1CC(=O)N(c2ccc(N3CC(CNC(=O)c4ccc(Cl)s4)OC3=O)cc2)C(=O)C1` (stereo not shown) [Example 165, tert-Butyl 4-{4-[5-({[(5-chloro-2-thienyl)carbonyl]amino}methyl)-2-oxo-1,3-oxazolidin-3-yl]phenyl}-3,5-dioxo-1-piperazinecarboxylate], half-maximal inhibition (IC50) required 2000 nM.

As for `O=C(NCC1CN(c2ccc(S(=O)(=O)N3CCCC3)cc2)C(=O)O1)c1ccc(Cl)s1` (stereo not shown) [Example 167, 5-Chloro-N-({2-oxo-3-[4-(1-pyrrolidinylsulfonyl)phenyl]-1,3-oxazolidin-5-yl}-methyl)-2-thiophenecarboxamide], it took 500 nM to reach half-maximal inhibition (IC50).

With `NCC1CN(c2ccc(N3CCCC3=O)cc2)C(=O)O1` (stereo not shown) [Example 151, 5-(Aminomethyl)-3-[4-(2-oxo-1-pyrrolidinyl)phenyl]-1,3-oxazolidin-2-one], it took 2000 nM to reach half-maximal inhibition (IC50).

`O=C(NCC1CN(c2ccc(N3CCCS3(=O)=O)cc2)C(=O)O1)c1ccc(Cl)s1` (stereo not shown) [Example 160, 5-Chloro-N-({3-[4-(1,1-dioxido-2-isothiazolidinyl)phenyl]-2-oxo1,3-oxazolidin-5-yl}methyl)-2-thiophenecarboxamide] yielded a 50% inhibitory concentration (IC50) of 140 nM.

As to `CN(C)S(=O)(=O)c1ccc(N2C[C@H](CNC(=O)c3ccc(Cl)s3)OC2=O)cc1` [Example 40, 5-Chloro-N-[((5S)-3-{4-[(dimethylamino)sulfonyl]phenyl}-2-oxo-1,3-oxazolidin-5-yl)methyl]-2-thiophenecarboxamide], the IC50 came to 90 nM.

The molecule `O=C(NC[C@H]1CN(c2ccc(N3CCC3=O)cc2)C(=O)O1)c1ccc(Cl)s1` [Example 164, 5-Chloro-N-({(5S)-2-oxo-3-[4-(2-oxo-1-azetidinyl)phenyl]-1,3-oxazolidin-5-yl}-methyl)-2-thiophenecarboxamide] showed an IC50 of 380 nM.

The same test, now with this note: table of Examples 48-58.
With `O=C(NC[C@H]1CN(c2ccc3c(c2)OCc2nccn2-3)C(=O)O1)c1ccc(Cl)s1` [Example 53], the half-maximal inhibitory concentration (IC50) came to 740 nM.

With `Cc1ccc(C(=O)NC[C@H]2CN(c3ccc(N4CCCC4=O)cc3)C(=O)O2)s1` [Example 57], half-maximal inhibition (IC50) was put at 580 nM. This IC50 and that of the molecule before are within 1.5-fold of each other.

In turn, `O=C(NC[C@H]1CN(c2ccc(N3CCOC3=O)cc2)C(=O)O1)c1ccc(Cl)s1` [Example 55] came in with a half-maximal inhibitory concentration (IC50) of 40 nM.

Molecule `CN1C(=O)COc2cc(N3C[C@H](CNC(=O)c4ccc(Cl)s4)OC3=O)ccc21` [Example 51] yielded a half-inhibitory concentration (IC50) of 1190 nM.
